Assay results reported in EP0048614B1, “1-N-acylated and 1-N-alkylated derivatives of 4-0-substituted -2-deoxystreptamine aminoglycosides” (ELI LILLY AND COMPANY, priority 1980, dated 1982).
Values after ≈ are worked out from the molar mass of the structure shown. Like-named read-outs stand apart in the source and are kept apart here.

Columns and labels:
Proteus inconstans PR33 = experiment: MIC, standard agar dilution test; type: cell-based; settings: Providencia alcalifaciens, PR33, read-out: Minimum Inhibitory Concentration
Description: (§1) The antibacterial activity of the deprotected compounds of this invention is illustrated by the following in vitro and in vivo test data obtained with representative compounds. In Table I, the minimum inhibitory concentration (MIC) for representative compounds against a wide range of gram-positive and gram-negative bacteria is presented. The MIC values were obtained by the standard agar dilution test.

[1] = system: Bordetella bronchiseptica 16; experiment: MIC, standard agar dilution test; type: cell-based; settings: Bordetella bronchiseptica, 16, read-out: Minimum Inhibitory Concentration
Description: as §1

[2] = system: Staphylococcus aureus V41; experiment: MIC, standard agar dilution test; type: cell-based; settings: Staphylococcus aureus, V41, read-out: Minimum Inhibitory Concentration
Description: as §1

[3] = system: Streptococcus pneumoniae Park I; experiment: MIC, standard agar dilution test; type: cell-based
Description: as §1

[4] = system: Enterobacter aerogenes EB17; experiment: MIC, standard agar dilution test; type: cell-based; settings: Klebsiella aerogenes
Description: as §1

[5] = system: Staphylococcus aureus S13E; experiment: MIC, standard agar dilution test; type: cell-based; settings: read-out: Minimum Inhibitory Concentration
Description: as §1

Enterobacter cloacae EB5 = experiment: MIC, standard agar dilution test; type: cell-based; settings: Enterobacter cloacae, EB5, read-out: Minimum Inhibitory Concentration
Description: as §1

[6] = system: Salmonella typhimurium 1335; experiment: MIC, standard agar dilution test; type: cell-based; settings: Salmonella enterica, TYPHIMURIUM, read-out: Minimum Inhibitory Concentration
Description: as §1

Proteus rettgeri PR7 = experiment: MIC, standard agar dilution test; type: cell-based; settings: Providencia rettgeri, PR7, read-out: Minimum Inhibitory Concentration, Proteus rettgeri PR7
Description: as §1

[7] = system: Staphylococcus aureus X400; experiment: MIC, standard agar dilution test; type: cell-based; settings: Staphylococcus aureus, X400, read-out: Minimum Inhibitory Concentration, Staphylococcus aureus X400
Description: as §1

Serratia marcescens X99 = experiment: MIC, standard agar dilution test; type: cell-based
Description: as §1

[8] = system: Enterobacter aerogenes C32; experiment: MIC, standard agar dilution test; type: cell-based; settings: Klebsiella aerogenes
Description: as §1

Escherichia coli N10 = experiment: MIC, standard agar dilution test; type: cell-based; settings: Escherichia coli
Description: as §1

[9] = system: Enterobacter aerogenes X68; experiment: MIC, standard agar dilution test; type: cell-based; settings: Klebsiella aerogenes
Description: as §1

Serratia marcescens SE3 = experiment: MIC, standard agar dilution test; type: cell-based; settings: Serratia marcescens, SE3, read-out: Minimum Inhibitory Concentration
Description: as §1

[10] = system: Staphylococcus epidermidis EPI2; experiment: MIC, standard agar dilution test; type: cell-based
Description: as §1

Escherichia coli TEM = experiment: MIC, standard agar dilution test; type: cell-based; settings: read-out: Minimum Inhibitory Concentration
Description: as §1

Hemophilus influenzae 76 = experiment: MIC, standard agar dilution test; type: cell-based
Description: as §1

[11] = system: Pseudomonas aeruginosa Ps18; experiment: MIC, standard agar dilution test; type: cell-based; settings: Pseudomonas aeruginosa, PS18, read-out: Minimum Inhibitory Concentration
Description: as §1

[12] = system: Streptococcus group D X66; experiment: MIC, standard agar dilution test; type: cell-based; settings: DX66, read-out: Minimum Inhibitory Concentration
Description: as §1

[13] = system: Citrobacter freundii CF17; experiment: MIC, standard agar dilution test; type: cell-based; settings: Citrobacter freundii, CF17, read-out: Minimum Inhibitory Concentration
Description: as §1

[14] = system: Hemophilus influenzae C.L.; experiment: MIC, standard agar dilution test; type: cell-based; settings: Haemophilus influenzae
Description: as §1

[15] = system: Enterobacter cloacae 265A; experiment: MIC, standard agar dilution test; type: cell-based; settings: Enterobacter cloacae, 265A, read-out: Minimum Inhibitory Concentration
Description: as §1

Proteus morganii PR15 = experiment: MIC, standard agar dilution test; type: cell-based; settings: Morganella morganii, PR15, read-out: Minimum Inhibitory Concentration
Description: as §1

[16] = system: Staphylococcus aureus X1.1; experiment: MIC, standard agar dilution test; type: cell-based
Description: as §1

[17] = system: Klebsiella pneumoniae X26; experiment: MIC, standard agar dilution test; type: cell-based
Description: as §1

Escherichia coli EC14 = experiment: MIC, standard agar dilution test; type: cell-based
Description: as §1

[18] = system: Klebsiella pneumoniae KAE; experiment: MIC, standard agar dilution test; type: cell-based; settings: Klebsiella pneumoniae, read-out: Minimum Inhibitory Concentration
Description: as §1

Shigella sonnei N9 = experiment: MIC, standard agar dilution test; type: cell-based; settings: read-out: Minimum Inhibitory Concentration
Description: as §1

[19] = system: Pseudomonas aeruginosa X528; experiment: MIC, standard agar dilution test; type: cell-based; settings: Pseudomonas aeruginosa, X528, read-out: Minimum Inhibitory Concentration
Description: as §1

[20] = system: Pseudomonas aeruginosa X239; experiment: MIC, standard agar dilution test; type: cell-based; settings: Pseudomonas aeruginosa, X239, read-out: Minimum Inhibitory Concentration
Description: as §1

[21] = system: Streptococcus group D 9960; experiment: MIC, standard agar dilution test; type: cell-based; settings: D9960, read-out: Minimum Inhibitory Concentration
Description: as §1

[22] = system: Salmonella heidelberg X514; experiment: MIC, standard agar dilution test; type: cell-based; settings: Salmonella enterica, X514, read-out: Minimum Inhibitory Concentration
Description: as §1

[23] = system: Streptococcus pyogenes C203; experiment: MIC, standard agar dilution test; type: cell-based; settings: Streptococcus pyogenes, C203, read-out: Minimum Inhibitory Concentration
Description: as §1

Proteus rettgeri C24 = experiment: MIC, standard agar dilution test; type: cell-based; settings: Providencia rettgeri
Description: as §1

[24] = system: Staphylococcus epidermidis EPI1; experiment: MIC, standard agar dilution test; type: cell-based; settings: Staphylococcus epidermidis, EPI1; read-out: Minimum Inhibitory Concentration
Description: as §1

Escherichia coli X563 = experiment: Standard disc-plate method, zone of inhibition against apramycin-resistant strain; type: cell-based; settings: apramycin-resistant E. coli X563, one value for each of two test runs per compound; for zone of inhibition at 15 µg/disc: Escherichia coli, X563, read-out: Zone of Inhibition (diameter in mm), 15 mcg/disc
Description: Table III, shown below, illustrates the in vitro activity of 1-N-(S-y-amino-a-hydroxybutyryl)apramycin, 1-N-(RS-y-amino-a-hydroxybutyryl)apramycin, and 1-N-(S-y-amino-a-hydroxybutyryl)nebramine against an apramycin resistant strain of E. coli. The results below were obtained using the standard disc-plate method. The numerical values are the diameters in millimeters of the zones of inhibition observed against this bacterium. Compounds substituted with the y-amino-a-hydroxybutyryl and analogous side chains are useful in treating infections caused by apramycin resistant bacteria such as the one above.
The test organism (E. coli X563) used in the experiments summarized in Table III is resistant to apramycin due to a 3-N-acetyltransferase which enzymatically inactivates apramycin.

[25] = system: Staphylococcus aureus 3055; experiment: Subcutaneous therapy of experimental bacterial infection in mice (ED50); type: in vivo; settings: Staphylococcus aureus, 3055, sc
Method: Table II illustrates the effective dose (ED50, the effective dose to protect 50 percent of the test animals) for representative compounds of this invention against an experimental bacterial infection in mice.
The ED50 values were determined as described by W. E. Wick et al., Journal of Bacteriology, 81 [No. 2], 233-235 (1961).

Structure (SMILES)	MIC (Proteus inconstans PR33) [µg/mL]	MIC [1] [µg/mL]	MIC [2] [µg/mL]	MIC [5] [µg/mL]	MIC (Enterobacter cloacae EB5) [µg/mL]	MIC [6] [µg/mL]	MIC (Proteus rettgeri PR7) [µg/mL]	MIC [7] [µg/mL]	MIC (Serratia marcescens SE3) [µg/mL]	MIC (Escherichia coli TEM) [µg/mL]	MIC [11] [µg/mL]	MIC [12] [µg/mL]	MIC [13] [µg/mL]	MIC [15] [µg/mL]	MIC (Proteus morganii PR15) [µg/mL]	MIC [18] [µg/mL]	MIC (Shigella sonnei N9) [µg/mL]	MIC [19] [µg/mL]	MIC [20] [µg/mL]	MIC [21] [µg/mL]	further results
CNC1C(OC2OC(CO)C(N)C(O)C2O)OC2CC(N)C(OC3C(N)CC(NC(=O)C(O)CCN)C(O)C3O)OC2C1O (stereo not drawn) [Test Compound 1, 1-N-(S-γ-amino-α-hydroxybutyryl)apramycin]	8 (≈ 12.5 µM)	64 (≈ 99.9 µM)	16 (≈ 25 µM)	16 (≈ 25 µM)	16 (≈ 25 µM)	16 (≈ 25 µM)	8 (≈ 12.5 µM)	32 (≈ 49.9 µM)	16 (≈ 25 µM)	4 (≈ 6.24 µM)	128 (≈ 200 µM)	> 128	16 (≈ 25 µM)	32 (≈ 49.9 µM)	128 (≈ 200 µM)	16 (≈ 25 µM)	16 (≈ 25 µM)	64 (≈ 99.9 µM)	64 (≈ 99.9 µM)	> 128	MIC ([3]; Streptococcus pneumoniae; read-out: Minimum Inhibitory Concentration): 64 µg/mL (≈ 99.9 µM); MIC ([4]; EB17, read-out: Minimum Inhibitory Concentration): 16 µg/mL (≈ 25 µM); MIC (Serratia marcescens X99; Serratia marcescens, X99, read-out: Minimum Inhibitory Concentration, Serratia marcescens X99): 8 µg/mL (≈ 12.5 µM); MIC ([8]; C32, read-out: Minimum Inhibitory Concentration): 8 µg/mL (≈ 12.5 µM); MIC (Escherichia coli N10; N10, Escherichia coli N10, agar dilution, read-out: Minimum Inhibitory Concentration): 8 µg/mL (≈ 12.5 µM); MIC ([9]; X68, read-out: Minimum Inhibitory Concentration, Enterobacter aerogenes X68): 8 µg/mL (≈ 12.5 µM); MIC ([10]; Staphylococcus epidermidis, EPI2, read-out: Minimum Inhibitory Concentration): 4 µg/mL (≈ 6.24 µM); MIC (Hemophilus influenzae 76; Haemophilus influenzae, 76, read-out: Minimum Inhibitory Concentration, Hemophilus influenzae 76): 16 µg/mL (≈ 25 µM); MIC ([14]; read-out: Minimum Inhibitory Concentration, Hemophilus influenzae C.L.): 16 µg/mL (≈ 25 µM); MIC ([16]; Staphylococcus aureus, X1.1, read-out: Minimum Inhibitory Concentration): 8 µg/mL (≈ 12.5 µM); MIC ([17]; Klebsiella pneumoniae, X26, read-out: Minimum Inhibitory Concentration): 8 µg/mL (≈ 12.5 µM); MIC (Escherichia coli EC14; Escherichia coli EC14, agar dilution, read-out: Minimum Inhibitory Concentration): 16 µg/mL (≈ 25 µM); MIC [22]: 16 µg/mL (≈ 25 µM); MIC [23]: 64 µg/mL (≈ 99.9 µM); MIC (Proteus rettgeri C24; C24, read-out: Minimum Inhibitory Concentration): 8 µg/mL (≈ 12.5 µM); MIC [24]: 8 µg/mL (≈ 12.5 µM); Zone of Inhibition (diameter in mm) (Escherichia coli X563; 15 mcg/disc, listed as 1): 14.7 mm; zone of inhibition at 15 µg/disc (Escherichia coli X563): 12.4 mm; ED50 ([25]; read-out: Effective Dose (ED50), mg/kg × 2 subcutaneous doses at 1 and 5 hours post infection, mice challenged with 68.1 LD50's): < 4.35 mg/kg
CNC1C(OC2OC(CO)C(N)C(O)C2O)OC2CC(N)C(OC3C(N)CC(NC(=O)CN)C(O)C3O)OC2C1O (centres unmarked) [Test Compound 3, 1-N-glycylapramycin]	128 (≈ 215 µM)	> 128	128 (≈ 215 µM)	64 (≈ 107 µM)	128 (≈ 215 µM)	128 (≈ 215 µM)	> 128	> 128	128 (≈ 215 µM)	32 (≈ 53.6 µM)	> 128	> 128	> 128	128 (≈ 215 µM)	> 128	> 128	128 (≈ 215 µM)	> 128	> 128	> 128	MIC ([3]; Streptococcus pneumoniae, read-out: Minimum Inhibitory Concentration): > 128 µg/mL; MIC ([4]; Enterobacter aerogenes EB17, agar dilution, read-out: Minimum Inhibitory Concentration): 64 µg/mL (≈ 107 µM); MIC (Serratia marcescens X99; Serratia marcescens X99, read-out: Minimum Inhibitory Concentration): 64 µg/mL (≈ 107 µM); MIC ([8]; Enterobacter aerogenes C32, agar dilution, read-out: Minimum Inhibitory Concentration): 64 µg/mL (≈ 107 µM); MIC (Escherichia coli N10; N10, read-out: Minimum Inhibitory Concentration): > 128 µg/mL; MIC ([9]; Enterobacter aerogenes X68, read-out: Minimum Inhibitory Concentration): 64 µg/mL (≈ 107 µM); MIC ([10]; Staphylococcus epidermidis EPI2, agar dilution, read-out: Minimum Inhibitory Concentration): 64 µg/mL (≈ 107 µM); MIC (Hemophilus influenzae 76; Haemophilus influenzae, Hemophilus influenzae 76, read-out: Minimum Inhibitory Concentration): 64 µg/mL (≈ 107 µM); MIC ([14]; Hemophilus influenzae C.L., read-out: Minimum Inhibitory Concentration): 64 µg/mL (≈ 107 µM); MIC ([16]; Staphylococcus aureus X1.1, agar dilution, read-out: Minimum Inhibitory Concentration): 64 µg/mL (≈ 107 µM); MIC ([17]; Klebsiella pneumoniae X26, agar dilution, read-out: Minimum Inhibitory Concentration): 64 µg/mL (≈ 107 µM); MIC (Escherichia coli EC14; Escherichia coli, EC14, read-out: Minimum Inhibitory Concentration): 128 µg/mL (≈ 215 µM); MIC [22]: 128 µg/mL (≈ 215 µM); MIC [23]: > 128 µg/mL; MIC (Proteus rettgeri C24; Proteus rettgeri C24, agar dilution, read-out: Minimum Inhibitory Concentration): 64 µg/mL (≈ 107 µM); MIC [24]: 64 µg/mL (≈ 107 µM); zone of inhibition at 15 µg/disc (Escherichia coli X563): < 8 mm; ED50 ([25]; mg/kg × 2 subcutaneous doses at 1 and 5 hours post infection, mice challenged with 1,794 LD50's, read-out: Effective Dose (ED50)): 59.5 mg/kg
